Data on one compound can be found in patent publication US20200115688A1, “COMPOSITIONS AND METHODS FOR ENHANCING GENOME EDITING” (The Regents of the University of California, priority 2017, published 2020).

This assay deals with Neural progenitor cells with a tdTomato reporter gene. As to the kind of experiment: Cas9 RNP genome editing in neural progenitor cells pretreated with Bafilomycin A1. The format is cell-based. To be noted: cells pretreated 1 hour before Cas9 RNPs added outside the cells; genomic DNA collected after 48 hours, target locus analyzed for Cas9-mediated targeted genomic deletions; FIG. 1. The method, then:
Neural progenitor cells with a tdTomato reporter gene were pretreated with Bafilomycin A1 for 1 hour prior to addition of Cas9 RNPs outside of the cells. After 24 hours cells were washed 2× with Heparin to remove any remaining Cas9 RNP outside the cells. After 48 hours genomicDNA was collected and the target locus analyzed for Cas9-mediated targeted genomic deletions.

Consider `CO/C1=C\C(C)=C\[C@@H](C)[C@@H](O)[C@@H](C)C/C(C)=C/C=C/[C@H](OC)[C@@H]([C@@H](C)[C@@H](O)[C@H](C)[C@@]2(O)C[C@@H](O)[C@H](C)[C@@H](C(C)C)O2)OC1=O` [bafilomycin A1], for which the “editing efficiency of 0×NLS-Cas9-2×NLS” value was “no effect” and the “editing efficiency of cell penetrating Cas9 RNP, 4×NLS-Cas9-2×NLS” value is “specifically increased”.
